Results on 4 compounds are retold here after patent US20220281822A1, “PLANT GROWTH REGULATOR AND METHOD FOR PROMOTING PLANT GROWTH” (Kureha Corporation, priority 2019, published 2022).

Common to all, as to assay type: in vivo
Assay [1] concerns Arabidopsis thaliana (Col-O). As to the kind of experiment: Plant height and number of flowers and fruits of Arabidopsis thaliana after treatment via water supply (Example 1). The following applies: for Flower and Fruit Ratio / Plant height Ratio: 1 mM, 37th day after seeding, ratio to Comparative Example 2 (distilled water); for Flower and Fruit / Plant height: 50 mL of 1 mM aqueous solution on 21st, 23rd, 25th, 27th days after seeding, measured on 37th day, 25° C. The method, then: Arabidopsis thaliana (Col-O) was sown in plastic pots having a width of 65 mm, a depth of 65 mm, and a height of 70 mm, three individuals per pot. Plastic deep dishes each having a diameter of 160 mm and a height of 28 mm were prepared, and three pots were respectively placed therein. As soil, 100 mL of vermiculite, 50 mL of granular soil (JA Granular Kumiai Synthetic Soil No. 3), and 50 mL of vermiculite were placed in each pot in this order.
In a thermostatic chamber set at room temperature of 25° C., the light period was 16 hours and the dark period was 8 hours. The light conditions were set using a fluorescent lamp (PLANT FLEC, 40 W LED fluorescent lamp for plant growth, electric bulb color, available from Nippon Medical and Chemical Instruments Co., Ltd.) so that the light intensity was 5000 lx in the central part under the fluorescent lamp irradiation. Water supply was done from the bottom, and the water level was set at about 5 mm. Ergothioneine treatment was started 4 weeks after seeding. More specifically, on the 21st, 23rd, 25th, and 27th days after seeding, 50 mL of a 1 mM L-(+)-ergothioneine (available from Cayman Chemical) aqueous solution was added instead of water supply.
On the 37th day after seeding, the plant height (cm) and the number of flowers and fruits per Arabidopsis thalianawere measured.
The same operation as in Example 1 was carried out except that L-(+)-ergothioneine in the aqueous solution was replaced with oxidized glutathione (available from Wako Pure Chemical Industries, Ltd.).
The same operation as in Example 1 was carried out except that the L-(+)-ergothioneine aqueous solution was replaced with distilled water.
(§1) The ratio of “grass height” and “flowers and fruits” for Example 1, Comparative Example 1, and Comparative Example 2 to the results of Comparative Example 2 are shown in Table 1 as “Ratio”, respectively. The “seed yield” for Examples 2 to 4 and Comparative Examples 3 to 6 are shown as “Ratio” in Table 2, where the value for Comparative Example 6 is set to 1. The “seed yield” for Examples 5 and 6 and Comparative Examples 7 and 8 are shown as “Ratio” in Table 3, where the value for Comparative Example 8 is set to 1.

In assay [2] the test system is Arabidopsis thaliana (Col-O). The assay can be described thus: Seed yield of Arabidopsis thaliana at different compound concentrations (Examples 2 to 4). The following applies: for Seed yield Ratio: 85th day, Comparative Example 6 (distilled water) set to 1; for Seed yield: harvested on 85th day after seeding, 22° C. On the procedure: One individual Arabidopsis thaliana (Col-O) was sown in a plastic pot having a diameter of 60 mm and a height of 55 mm. Plastic deep dishes each having a diameter of 160 mm and a height of 28 mm were prepared, and six pots were respectively placed therein. As soil, 45 mL of vermiculite, 22.5 mL of granular soil (JA Granular Kumiai Synthetic Soil No. 3), and 22.5 mL of vermiculite were placed in each pot in this order.
The procedure was the same as in Example 1, except that the room temperature was set to 22° C.
On the 85th day after seeding, seeds were harvested, and the seed yield (mg/plant) was measured.
The same operation as in Example 2 was carried out except that the concentration of L-(+)-ergothioneine aqueous solution was set to 0.1 mM.
The same operation as in Example 2 was carried out except that the concentration of L-(+)-ergothioneine aqueous solution was set to 0.01 mM. […]
The same operation as in Example 2 was carried out except that the L-(+)-ergothioneine aqueous solution was replaced with distilled water.
as §1

The subject of assay [3] is Arabidopsis thaliana (Col-O). As to the kind of experiment: Seed yield of Arabidopsis thaliana at different times of treatment (Examples 5 and 6). The following applies: 1 mM; for Seed yield: harvested on 82nd day, 22° C.; for Seed yield Ratio: 82nd day, Comparative Example 8 (distilled water) set to 1. On the procedure: The same operation as in Example 2 was carried out.
The same operation as in Example 1 was carried out except that the room temperature was set at 22° C. and L-(+)-ergothioneine was added 2 weeks after seeding, more specifically on the 8th, 10th, 12th, and 14th days.
On the 82nd day after seeding, seeds were harvested, and the seed yield (mg/plant) was measured.
The same operation as in Example 5 was carried out except that L-(+)-ergothioneine was added 4 weeks after seeding, more specifically on the 22nd, 24th, 26th, and 28th days.
The same operation as in Example 5 was carried out except that oxidized glutathione was used in place of L-(+)-ergothioneine in the aqueous solution and added 4 weeks after seeding, more specifically on the 22nd, 24th, 26th, and 28th days.
The same operation as in Example 5 was carried out except that the L-(+)-ergothioneine aqueous solution was replaced with distilled water.
as §1

Where [4] appears, read: time of treatment 4 weeks after seeding (22nd, 24th, 26th, 28th days).
Where [5] appears, read: time of treatment 4 weeks after seeding.

Regarding `C[N+](C)(C)[C@@H](Cc1c[nH]c(=S)[nH]1)C(=O)[O-]` [L-(+)-ergothioneine], in assay [1], the “Flower and Fruit Ratio” value is 1.7. In addition, the “Plant height Ratio” value in assay [1] was 1.3. In addition, the “Flower and Fruit” value in assay [1] is on record as 26 Number/plant. Besides, the Plant height in assay [1] stood at 29 cm. The “Seed yield Ratio” value in assay [2] (compound concentration 0.01 mM) came to 1.3; in assay [2] (compound concentration 0.1 mM) it was 1.5; in assay [2] (compound concentration 1 mM), 1.7; in assay [3] (time of treatment 2 weeks after seeding), 2.0; in assay [3] (setting [5]), 1.7. Besides, the Seed yield amounted to 109 mg/plant in assay [2] (compound concentration 0.01 mM); 130 mg/plant in assay [2] (compound concentration 0.1 mM); 142 mg/plant in assay [2] (compound concentration 1 mM); 140 mg/plant in assay [3] (time of treatment 2 weeks after seeding (8th, 10th, 12th, 14th days)); 114 mg/plant in assay [3] (setting [4]).
On to `N[C@@H](CCC(=O)O)C(=O)O` [L-glutamic acid, reference compound], for which, in assay [2] (compound concentration 1 mM), the “Seed yield Ratio” value stood at 1.0 and the Seed yield was 90 mg/plant.
With `O=C(O)[C@@H]1CCCN1` [L-proline, reference compound], in assay [2] (compound concentration 1 mM), the “Seed yield Ratio” value is on record as 1.2 and the Seed yield worked out at 102 mg/plant.
As for “oxidized glutathione [reference compound]”, in assay [1], the “Flower and Fruit Ratio” value turned out to be 1.5; the “Plant height Ratio” value amounted to 1.1; the “Flower and Fruit” value is recorded as 22 Number/plant; the Plant height worked out at 24 cm. In addition, in assay [2] (compound concentration 1 mM), the “Seed yield Ratio” value worked out at 1.2 and the Seed yield worked out at 100 mg/plant. Moreover, in assay [3] (setting [4]), the Seed yield is listed as 92 mg/plant. Further, the “Seed yield Ratio” value in assay [3] (setting [5]) was found to be 1.3.
